Source: paper PMC7604503, “Cyclic peptides can engage a single binding pocket through highly divergent modes” (Proceedings of the National Academy of Sciences of the …, 2020)
Where a SMILES comes first, the peptide text is derived from it. Bridges are numbered along the chain shown (N, C = ends).

Tests used:
Assay in all cases: BROMOscan competition binding assay (BromoMAX, Eurofins DiscoverX)
BRPF3 = target: T1, BRPF3 (Homo sapiens, UniProt Q9ULD4); settings: for Percent Control BRPF3: compound concentration 1000 nM, lower percentage control = stronger affinity
T1 construct: purchased Eurofins DiscoverX (BROMOscan, BromoMAX)
T1 sequence (Q9ULD4 1-1205): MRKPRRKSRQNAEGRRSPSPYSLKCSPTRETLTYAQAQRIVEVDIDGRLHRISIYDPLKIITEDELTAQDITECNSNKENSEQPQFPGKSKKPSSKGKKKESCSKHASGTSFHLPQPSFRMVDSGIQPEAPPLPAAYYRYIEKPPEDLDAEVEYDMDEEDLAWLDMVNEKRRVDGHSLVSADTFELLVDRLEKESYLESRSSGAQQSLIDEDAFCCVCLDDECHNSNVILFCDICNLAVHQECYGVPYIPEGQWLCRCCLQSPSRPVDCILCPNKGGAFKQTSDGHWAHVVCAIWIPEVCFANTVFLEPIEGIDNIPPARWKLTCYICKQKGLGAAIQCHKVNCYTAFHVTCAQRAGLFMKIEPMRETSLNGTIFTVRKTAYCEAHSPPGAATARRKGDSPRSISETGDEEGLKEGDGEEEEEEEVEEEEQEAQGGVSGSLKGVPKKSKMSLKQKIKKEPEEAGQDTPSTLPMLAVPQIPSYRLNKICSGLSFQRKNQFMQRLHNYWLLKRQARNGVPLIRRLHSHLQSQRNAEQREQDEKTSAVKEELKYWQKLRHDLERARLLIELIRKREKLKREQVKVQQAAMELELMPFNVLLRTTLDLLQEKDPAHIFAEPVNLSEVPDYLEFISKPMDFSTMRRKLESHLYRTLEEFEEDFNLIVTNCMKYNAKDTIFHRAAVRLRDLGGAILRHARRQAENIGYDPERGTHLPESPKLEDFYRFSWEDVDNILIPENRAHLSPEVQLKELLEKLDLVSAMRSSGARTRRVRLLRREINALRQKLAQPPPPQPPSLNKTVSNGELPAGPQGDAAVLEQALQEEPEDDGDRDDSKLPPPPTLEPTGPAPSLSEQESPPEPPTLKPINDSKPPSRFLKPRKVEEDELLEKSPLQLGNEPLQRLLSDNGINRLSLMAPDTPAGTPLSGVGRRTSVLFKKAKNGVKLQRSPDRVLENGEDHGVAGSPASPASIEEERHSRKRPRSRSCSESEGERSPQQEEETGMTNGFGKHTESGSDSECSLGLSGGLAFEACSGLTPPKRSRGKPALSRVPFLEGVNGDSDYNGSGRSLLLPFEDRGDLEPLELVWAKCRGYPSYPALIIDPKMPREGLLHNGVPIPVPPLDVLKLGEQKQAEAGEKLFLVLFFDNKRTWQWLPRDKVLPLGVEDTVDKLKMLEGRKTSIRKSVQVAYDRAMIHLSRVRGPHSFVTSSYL

BRDT(2) = target: T2, BRDT(2) (Homo sapiens, UniProt Q58F21); settings: for Percent Control BRDT(2): compound concentration 1000 nM, lower percentage control = stronger affinity
T2 construct: BRDT(2); purchased Eurofins DiscoverX (BROMOscan, BromoMAX)

ATAD2B = target: T3, ATAD2B (Homo sapiens, UniProt Q9ULI0); settings: for Percent Control ATAD2B: compound concentration 1000 nM, lower percentage control = stronger affinity
T3 construct: purchased Eurofins DiscoverX (BROMOscan, BromoMAX)
T3 sequence (Q9ULI0 1-1458): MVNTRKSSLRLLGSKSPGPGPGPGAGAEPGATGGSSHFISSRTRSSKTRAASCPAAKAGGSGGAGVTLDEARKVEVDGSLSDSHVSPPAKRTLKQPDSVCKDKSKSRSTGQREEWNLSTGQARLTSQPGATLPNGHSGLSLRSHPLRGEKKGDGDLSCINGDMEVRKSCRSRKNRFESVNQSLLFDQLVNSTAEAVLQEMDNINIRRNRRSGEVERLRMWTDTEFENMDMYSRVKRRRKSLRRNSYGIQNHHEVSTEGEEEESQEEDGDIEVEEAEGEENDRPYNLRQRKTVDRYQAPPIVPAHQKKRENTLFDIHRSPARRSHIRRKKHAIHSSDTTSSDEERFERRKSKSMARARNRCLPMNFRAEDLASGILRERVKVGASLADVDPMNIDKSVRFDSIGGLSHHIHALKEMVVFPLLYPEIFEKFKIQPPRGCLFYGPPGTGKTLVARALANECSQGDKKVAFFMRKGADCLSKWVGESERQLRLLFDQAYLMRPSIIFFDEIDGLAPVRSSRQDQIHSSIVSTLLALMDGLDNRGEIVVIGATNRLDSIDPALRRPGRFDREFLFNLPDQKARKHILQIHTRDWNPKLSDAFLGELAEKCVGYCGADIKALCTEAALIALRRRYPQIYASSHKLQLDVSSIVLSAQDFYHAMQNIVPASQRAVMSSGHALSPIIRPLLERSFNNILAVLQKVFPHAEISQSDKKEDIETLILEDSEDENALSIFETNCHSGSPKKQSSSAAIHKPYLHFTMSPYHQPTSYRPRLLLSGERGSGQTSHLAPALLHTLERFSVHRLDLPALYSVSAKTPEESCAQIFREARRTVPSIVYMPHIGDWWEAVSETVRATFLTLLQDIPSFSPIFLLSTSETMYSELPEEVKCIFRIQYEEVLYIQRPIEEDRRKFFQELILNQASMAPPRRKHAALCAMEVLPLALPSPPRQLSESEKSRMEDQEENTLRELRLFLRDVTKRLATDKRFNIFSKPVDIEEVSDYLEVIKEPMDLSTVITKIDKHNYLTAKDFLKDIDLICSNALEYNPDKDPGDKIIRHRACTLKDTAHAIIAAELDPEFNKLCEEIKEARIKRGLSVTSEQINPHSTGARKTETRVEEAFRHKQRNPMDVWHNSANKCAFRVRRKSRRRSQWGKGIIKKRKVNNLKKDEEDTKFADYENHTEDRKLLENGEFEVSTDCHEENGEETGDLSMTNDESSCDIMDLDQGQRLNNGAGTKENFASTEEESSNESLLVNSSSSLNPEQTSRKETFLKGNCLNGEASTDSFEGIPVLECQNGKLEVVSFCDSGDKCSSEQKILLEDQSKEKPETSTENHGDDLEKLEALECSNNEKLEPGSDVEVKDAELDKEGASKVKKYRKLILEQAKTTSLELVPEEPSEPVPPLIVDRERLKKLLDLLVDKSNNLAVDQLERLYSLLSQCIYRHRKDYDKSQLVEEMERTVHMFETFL

BRD2(2) = target: T4, BRD2(2) (Homo sapiens, UniProt P25440); settings: for Percent Control BRD2(2): compound concentration 1000 nM, lower percentage control = stronger affinity
T4 construct: BRD2(2); purchased Eurofins DiscoverX (BROMOscan, BromoMAX)
T4 sequence (P25440 344-455 limits assumed): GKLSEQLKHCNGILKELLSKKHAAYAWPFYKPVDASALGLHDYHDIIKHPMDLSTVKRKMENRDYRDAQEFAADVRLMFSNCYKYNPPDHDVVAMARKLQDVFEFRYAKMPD

WDR9(2) = target: T5, WDR9(2) (Homo sapiens, UniProt Q9NSI6); settings: for Percent Control WDR9(2): compound concentration 1000 nM, lower percentage control = stronger affinity
T5 construct: WDR9(2); purchased Eurofins DiscoverX (BROMOscan, BromoMAX)
T5 sequence (Q9NSI6 1307-1433 limits assumed): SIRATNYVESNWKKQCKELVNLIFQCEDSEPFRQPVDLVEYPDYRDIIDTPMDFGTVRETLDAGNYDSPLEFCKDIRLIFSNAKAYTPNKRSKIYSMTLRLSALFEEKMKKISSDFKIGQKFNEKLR

| SMILES | Percent Control BRPF3 (BRPF3) | Percent Control BRDT(2) (BRDT(2)) | Percent Control ATAD2B (ATAD2B) | Percent Control BRD2(2) (BRD2(2)) | Percent Control WDR9(2) (WDR9(2)) | remaining binding at 1 µM (BRPF3; read-out: Percent Control BRPF3) | percent of control binding at 1 µM (BRDT(2)) | percent of control binding at 1 µM (ATAD2B) | remaining binding at 1 µM (BRD2(2); read-out: Percent Control BRD2(2)) | percent of control binding at 1 µM (WDR9(2)) |
| --- | --- | --- | --- | --- | --- | --- | --- | --- | --- | --- |
| CC[C@H](C)[C@@H]1NC(=O)[C@H]([C@@H](C)O)NC(=O)[C@H](CCCCN)NC(=O)[C@H](Cc2c[nH]c3ccccc23)NC(=O)CSC[C@@H](C(N)=O)NC(=O)[C@H](CCC(N)=O)NC(=O)[C@H](CCCCNC(C)=O)NC(=O)[C@H]([C@@H](C)O)NC(=O)[C@H](CCCNC(=N)N)NC(=O)[C@H](Cc2c[nH]c3ccccc23)NC(=O)[C@H]([C@@H](C)O)NC(=O)[C@H](CCCCNC(C)=O)NC(=O)CNC(=O)[C@H](CCCCNC(C)=O)NC1=O [3.1B] ({CH2CO}-WKTIK(Ac)GK(Ac)TWRTK(Ac)QC-NH2; thioether N-14) | 100% | 100% | 100% | 100% | 96% |  |  |  |  |  |
| CC[C@H](C)[C@@H]1NC(=O)[C@H](Cc2c[nH]c3ccccc23)NC(=O)[C@H](Cc2c[nH]c3ccccc23)NC(=O)CSC[C@@H](C(N)=O)NC(=O)CNC(=O)[C@H](CCCCNC(C)=O)NC(=O)[C@H](CCCCN)NC(=O)[C@H](C(C)C)NC(=O)[C@H](CCCCNC(C)=O)NC(=O)[C@@H]2CCCN2C(=O)[C@H]([C@@H](C)CC)NC1=O [3.1C] ({CH2CO}-WWIIPK(Ac)VKK(Ac)GC-NH2; thioether N-11) | 95% | 4.9% | 100% | 0.35% | 87% |  |  |  |  |  |
| CC[C@H](C)[C@H](NC(=O)[C@H](CCCNC(=N)N)NC(=O)[C@H](CCCCNC(C)=O)NC(=O)[C@H](CCCNC(=N)N)NC(=O)[C@H](CC(C)C)NC(=O)[C@@H]1CSCC(=O)N[C@@H](Cc2c[nH]c3ccccc23)C(=O)N[C@@H](CCCCNC(C)=O)C(=O)NCC(=O)N[C@@H](Cc2ccc(O)cc2)C(=O)N[C@@H](CC(C)C)C(=O)N1)C(=O)N[C@@H](CCC(N)=O)C(=O)N[C@@H](CCCNC(=N)N)C(=O)N[C@H](C(=O)N[C@@H](Cc1ccc(O)cc1)C(=O)N[C@@H](CC(N)=O)C(N)=O)[C@@H](C)O [4.2C] ({CH2CO}-WK(Ac)GYLCLRK(Ac)RIQRTYN-NH2; thioether N-6) |  |  |  |  |  | 92% | 92% | 100% | 17% | 85% |
